Data: patent US20120329860A1, “Uses of Beta-Nicotinamide Adenine Dinucleotide” (MEDICAL COLLEGE OF GEORGIA INSTITUTE, INC, priority 2010, published 2012)

What was measured:
Rac1 = assay: G-LISA Rac activation assay in HPAEC; assay type: cell-based, human; details: 50 mM β-NAD, time course; basal by 30 min
Method: (§1) Protein extracts were separated by SDS-PAGE, transferred to nitrocellulose membrane and probed with specific antibodies. Horseradish peroxidase-conjugated goat anti-rabbit IgG antibody (Santa Cruz Biotechnology, Santa Cruz, Calif.) was used as the secondary antibody, and immunoreactive proteins were detected using enhanced chemiluminescence detection kit (ECL) according to the manufacturer's protocol (Amersham, Little Chalfont, UK). For quantification, immunoblot data were analyzed using NIH Image 1.63 software. Active Rac1 was determined using G-LISA Rac activation assay according to the manufacturer's recommendations (Cytoskeleton Inc., Denver, Colo.).

LPS-induced ALI in mice [1] = assay: BAL cell count; assay type: in vivo
Method: Mice were anesthetized with ketamine (150 mg/kg) and acetylpromazine (15 mg/kg) intraperitoneally (i.p.) before the exposure of the trachea via neck incision and intubation with 20-guage catheter and the right internal jugular vein was exposed via right chest incision for PBS or b-NAD installation. The mice were randomly divided into groups. LPS or sterile saline was instilled intratracheally (i.t.) via a 20-gauge catheter. Simultaneously, mice received either b-NAD (5.4 mg/kg, equivalent to final calculated plasma concentration […] or PBS in the control group intravenously (i.v.) through the internal jugular vein (IJ). The animals were allowed to recover for 18 hr. EBD was given through the IJ 2 hr prior to termination of the experiment. At termination, bronchoalveolar lavage (BAL) was collected. BAL was 1ml of 10% HBSS through the endotracheal catheter immediately on sacrifice with aspiration. BAL was immediately centrifuged and processed. After the BAL, ethylenediaminetetraacetic acid (EDTA) was used to flush the lungs of blood via the right heart ventricle and the lungs were then harvested. BAL and lungs were collected and stored at −70° C. for evaluation of lung injury. […]

LPS-induced ALI in mice [2] = assay: Lung histology (H&E); assay type: in vivo
Method: Lungs perfused free of blood after perfusion with EDTA, were immersed in 5% buffered paraformaldehyde for 18 hr at 4° C. prior to histological evaluation by hematoxylin and eosin staining (H&E staining). The right lung lobes were used for consistency. H&E staining was done by deparafinizing and hydrating the slides to water. The slides were stained in Harris Hematoxylin for 15 min and Eosin for 30 sec. The slides were dehydrated, cleared and mounted with cytoseal.

LPS-induced ALI in mice [3] = assay: Evans Blue Dye-albumin (EBD) lung permeability; assay type: in vivo
Method: Mice were anesthetized with ketamine (150 mg/kg) and acetylpromazine (15 mg/kg) intraperitoneally (i.p.) before the exposure of the trachea via neck incision and intubation with 20-guage catheter and the right internal jugular vein was exposed via right chest incision for PBS or b-NAD installation. The mice were randomly divided into groups. LPS or sterile saline was instilled intratracheally (i.t.) via a 20-gauge catheter. Simultaneously, mice received either b-NAD (5.4 mg/kg, equivalent to final calculated plasma concentration […] or PBS in the control group intravenously (i.v.) through the internal jugular vein (IJ). The animals were allowed to recover for 18 hr. EBD was given through the IJ 2 hr prior to termination of the experiment. At termination, bronchoalveolar lavage (BAL) was collected. BAL was 1ml of 10% HBSS through the endotracheal catheter immediately on sacrifice with aspiration. BAL was immediately centrifuged and processed. After the BAL, ethylenediaminetetraacetic acid (EDTA) was used to flush the lungs of blood via the right heart ventricle and the lungs were then harvested. BAL and lungs were collected and stored at −70° C. for evaluation of lung injury.
Measurement of EBD concentration in the lungs was performed by injection of EBD (20 mg/kg) into the right internal jugular vein 2 hr before the termination of the experiment to assess the vascular leak. Lungs free of blood were weighed and snap frozen in liquid nitrogen. The left lung was weighed and homogenized, then incubated with two volumes of formamide (18 hr, 60° C.) and centrifuged (5000 g, 30 min, 20° C.). The extravasated EBD concentration (mg/g, lung) in the lung homogenate was calculated against a standard curve. In a separate experiment the EBD was injected into the right internal jugular vein as described above at 2 hrs prior to termination of the experiment and the left lung gross anatomy view was photographed with a Leica NCL150 Camera.

[4] = tested on: LPS-induced mortality in mice; assay: LPS-induced mortality / survival; assay type: in vivo
Method: Mice were injected with β-NAD (100 mg/kg, i.p) or vehicle (saline, i.p) 10 min after LPS (20 mg/kg, i.p) challenge. As a treatment strategy, β-NAD was given twice a day (i.p) for 4 days. […]

Myeloperoxidase (MPO) = Myeloperoxidase (MPO) activity and staining in lungs; assay type: in vivo, mice
Method: MPO is a hemoprotein that is abundantly expressed in polymorphonuclear leukocytes (neutrophils) and secreted during their activation. MPO assay was carried out according to the manufacturer's assay protocol (Cayman Chemicals). Lungs of vehicle, LPS or LPS/b-NAD treated mice were used for the MPO assay. Lungs (free of blood) were weighed and snap frozen in liquid nitrogen. The left lung was weighed and homogenized in the lysis buffer and then centrifuged (12,000×g, 30 min). The protein from the clear supernatant was estimated and normalized from different treatment and analyzed for the MPO levels by ELISA. Values represent mean±SEM (n=3).

[5] = tested on: pro-inflammatory/anti-inflammatory cytokines gene expression; assay: qPCR of cytokine gene expression in lungs; assay type: in vivo; details: LPS/β-NAD vs LPS only mice
Method: Total RNA was prepared from the lung of mouse tissue using RNeasy mini kit (Qiagen, Valencia, Calif.). The mRNA was reverse-transcribed into complementary deoxyribonucleic acid (cDNA) using iScript reagents from Bio-Rad on a programmable thermal cycler (PCR-Sprint, Thermo Electron, Milford, Mass.). 50 ng of cDNA was amplified in each real-time polymerase chain reaction using ABgene reagents (distributed by Fisher Scientific), Bio-Rad myiQ Cycler and Custom-designed primers for genes specific to the mice (Integrated DNA Technologies, Coralville, Iowa). The Reverse transcription reaction was carried out for 25 min at 42° C. and terminated for 5 min at 85° C. Real time PCR was performed by denaturation for 30 sec at 94° C., annealing for 30 sec at 60° C. for a total of 40 cycles. The glyceraldehyde-3-phosphate dehydrogenase (GAPDH) was used to normalize the expression of the target genes.

[6] = tested on: VE-cadherin-positive cell-cell junctions in HPAEC; assay: VE-cadherin immunofluorescence of HPAEC monolayers; assay type: cell-based, human; details: 50 μM b-NAD, 30 minutes
Method: Immunostaining was performed as described (Kolosova et al., 2005, Circ Res 97(2):115-124). The DNA-binding, fluorescent dye 7-amino-actinomycin D (7AAD) was used to stain cell nuclei. The percentage of total cell surface area occupied by VE-cadherin-positive cell-cell junctions was quantitatively determined using Zeiss Microscope quantification Software.

[7] = tested on: myosin light chain (MLC) phosphorylation; assay: MLC phosphorylation immunoblot in LPS-treated HPAEC; assay type: cell-based, human; details: LPS/β-NAD mixture, 4 hrs
Method: as §1

`NC(=O)C1=CN([C@@H]2O[C@H](COP(=O)(O)OP(=O)(O)OC[C@H]3O[C@@H](n4cnc5c(N)ncnc54)[C@H](O)[C@@H]3O)[C@@H](O)[C@H]2O)C=CC1` [β-NAD, beta-nicotinamide adenine dinucleotide] was tested, and the Rac1 activation (Rac1) was “dramatic β-NAD-dependent activation of Rac1 at early time points”, the “total WBCs in BAL fluid” value (LPS-induced ALI in mice [1]; LPS treated mice, BAL at 24 hr) was “reduced total WBCs in BAL fluid” and the “neutrophil count of BAL fluid” value (LPS-induced ALI in mice [1]; LPS/b-NAD compared to LPS only treated mice) was “decrease in neutrophil count”. The “interstitial edema and infiltration of neutrophils (histology)” value (LPS-induced ALI in mice [2]; LPS/β-NAD vs LPS treated lung, 18 hr) was “less prominent”, the “lung histology, β-NAD alone” value (LPS-induced ALI in mice [2]; β-NAD alone, no LPS) was “no effect” and the “EBD leakage into lung parenchyma on gross examination” value (LPS-induced ALI in mice [3]; LPS 0.9 mg/kg i.t. and b-NAD 5.46 mg/kg, 24 hr) was “minimal leakage”. The “EBD-albumin in lung (average)” value (LPS-induced ALI in mice [3]; b-NAD/LPS treated mice) was 10.41 µg/g, the “EBD-albumin in lung (average)” value (LPS-induced ALI in mice [3]; β-NAD/saline control (no LPS)) was 6.54 µg/g and the “mortality, LPS vs. LPS/β-NAD” value ([4]; 15 day study) was “significantly reduced morality”. For the same compound, the “survival after LPS challenge” value ([4]; LPS 20 mg/kg i.p., β-NAD 100 mg/kg i.p. twice a day, 4 days) was “recovered and lived longer”, the “survival, β-NAD alone” value ([4]; β-NAD alone, no LPS) was “no effect” and the “MPO staining of lung sections (neutrophil infiltration)” value (Myeloperoxidase (MPO); LPS with β-NAD treatment) was “attenuated the LPS-induced myeloperoxidase”. The “MPO activity in lungs” value (Myeloperoxidase (MPO); LPS/b-NAD vs LPS challenged mice) was “attenuated MPO activity”, the “MPO activity in lungs, β-NAD alone” value (Myeloperoxidase (MPO); β-NAD alone, no LPS) was “no effect” and the “anti-inflammatory cytokines (IL-4, IL-10, and IL-13) gene expression in lungs” value [5] was “elevated”. The “proinflammatory cytokines (IL-1α, IL-1β, IFN-γ and TNF-α) gene expression in lungs” value [5] was “substantially or markedly downregulated”, the “VE-cadherin recruitment to cell-cell junctions” value [6] was “Appreciably more VE-cadherin was recruited to the area of cell-cell junctions” and the “percentage of total cell-surface area occupied by VE-cadherin-positive cell-cell junctions (mean)” value ([6]; 20 cells per group, control 17.42%) was 61.03%. For the same compound, the “LPS-stimulated MLC phosphorylation” value [7] was “significantly inhibited”.
